Assay results: patent US20100137305A1, “AMINOPYRIMIDINES USEFUL AS KINASE INHIBITORS” (VERTEX PHARMACEUTICALS INCORPORATED, priority 2008, published 2010)
Where two headings read alike, the source gives them in different places.

Legend:
[1] = target: N-terminally truncated (Δ 27) Abl kinase (Homo sapiens, UniProt P00519); test: Abl Kinase Activity Inhibition Assay, coupled enzyme system; format: biochemical; details: 110 μM ATP, 30° C.
Description: Compounds were screened for their ability to inhibit N-terminally truncated (Δ 27) Abl kinase activity using a standard coupled enzyme system (Fox et al., Protein Sci., 7, pp. 2249 (1998)). Reactions were carried out in a solution containing 100 mM HEPES (pH 7.5), 10 mM MgCl2, 25 mM NaCl, 300 μM NADH, 1 mM DTT and 3% DMSO. Final substrate concentrations in the assay were 110 μM ATP (Sigma Chemicals, St Louis, Mo.) and 70 μM peptide (EAIYAAPFAKKK, American Peptide, Sunnyvale, Calif.). Reactions were carried out at 30° C. and 21 nM Abl kinase. Final concentrations of the components of the coupled enzyme system were 2.5 mM phosphoenolpyruvate, 200 μM NADH, 60 μg/ml pyruvate kinase and 20 μg/ml lactate dehydrogenase.
An assay stock buffer solution was prepared containing all of the reagents listed above with the exception of ATP and the test compound of interest. The assay stock buffer solution (60 μl) was incubated in a 96 well plate with 2 μl of the test compound of interest at final concentrations typically spanning 0.002 μM to 30 μM at 30° C. for 10 min. Typically, a 12 point titration was prepared by serial dilutions (from 1 mM compound stocks) with DMSO of the test compounds in daughter plates. The reaction was initiated by the addition of 5 μl of ATP (final concentration 110 μM). Rates of reaction were obtained using a Molecular Devices Spectramax plate reader (Sunnyvale, Calif.) over 10 min at 30° C. The Ki values were determined from the residual rate data as a function of inhibitor concentration using nonlinear regression (Prism 3.0, Graphpad Software, San Diego, Calif.).

Aurora-2 (Aurora A) = target: T1, Aurora-2 (Aurora A) (Homo sapiens, UniProt O14965); test: Aurora-2 (Aurora A) Inhibition Assay, coupled enzyme assay; format: biochemical; details: 400 μM ATP, 30° C.; read-out: Aurora A kinase activity Ki
T1 sequence (O14965 1-403): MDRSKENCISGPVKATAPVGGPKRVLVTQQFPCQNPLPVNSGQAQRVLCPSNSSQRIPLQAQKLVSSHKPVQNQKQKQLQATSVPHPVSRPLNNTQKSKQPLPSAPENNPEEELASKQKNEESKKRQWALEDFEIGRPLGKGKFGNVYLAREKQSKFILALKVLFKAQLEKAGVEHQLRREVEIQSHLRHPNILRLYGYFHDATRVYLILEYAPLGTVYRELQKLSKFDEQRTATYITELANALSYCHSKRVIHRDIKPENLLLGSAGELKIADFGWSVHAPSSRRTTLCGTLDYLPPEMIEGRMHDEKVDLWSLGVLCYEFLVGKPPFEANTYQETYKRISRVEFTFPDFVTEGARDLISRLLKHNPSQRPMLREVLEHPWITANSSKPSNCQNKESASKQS
Description: Compounds were screened for their ability to inhibit Aurora-2 using a standard coupled enzyme assay (Fox et al., Protein Sci., (1998) 7, 2249). Assays were carried out in a mixture of 100 mM Hepes (pH7.5), 10 mM MgCl2, 1 mM DTT, 25 mM NaCl, 2.5 mM phosphoenolpyruvate, 300 μM NADH, 30 μg/ml pyruvate kinase and 10 μg/ml lactate dehydrogenase. Final substrate concentrations in the assay were 400 μM ATP (Sigma Chemicals) and 570 μM peptide (Kemptide, American Peptide, Sunnyvale, Calif.). Assays were carried out at 30° C. and in the presence of 40 nM Aurora-2.
An assay stock buffer solution was prepared containing all of the reagents listed above, with the exception of Aurora-2 and the test compound of interest. 55 μl of the stock solution was placed in a 96 well plate followed by addition of 2 μl of DMSO stock containing serial dilutions of the test compound (typically starting from a final concentration of 7.5 μM). The plate was preincubated for 10 minutes at 30° C. and the reaction initiated by addition of 10 μl of Aurora-2. Initial reaction rates were determined with a Molecular Devices SpectraMax Plus plate reader over a 10 minute time course. IC50 and Ki data were calculated from non-linear regression analysis using the Prism software package (GraphPad Prism version 3.0cx for Macintosh, GraphPad Software, San Diego Calif., USA).

[2] = target: T2, T315I mutant of human Abl (Homo sapiens, UniProt P00519, T315I); test: Mutant Abl Kinase (T315I) Activity Inhibition Assay (Upstate, radiometric); format: biochemical
T2 construct: purchased Upstate Cell Signaling Solutions (Dundee, UK)

Aurora-1 (Aurora B) = Aurora-1 (Aurora B) (Homo sapiens, UniProt Q96GD4); test: Aurora-1 (Aurora B) Inhibition Assay (radiometric); format: biochemical; details: 800 μM ATP; read-out: Aurora B kinase activity Ki
Description: An assay buffer solution was prepared which consisted of 25 mM HEPES (pH 7.5), 10 mM MgCl2, 0.1% BSA and 10% glycerol. A 22 nM Aurora-B solution, also containing 1.7 mM DTT and 1.5 mM Kemptide (LRRASLG), was prepared in assay buffer. To 22 μL of the Aurora-B solution, in a 96-well plate, was added 2 μl of a compound stock solution in DMSO and the mixture allowed to equilibrate for 10 minutes at 25° C. The enzyme reaction was initiated by the addition of 16 μl stock [γ-^33P]-ATP Pi-ATP solution (˜20 nCi/μL) prepared in assay buffer, to a final assay concentration of 800 μM. The reaction was stopped after 3 hours by the addition of 16 μL 500 mM phosphoric acid and the levels of ^33P incorporation into the peptide substrate were determined by the following method.
A phosphocellulose 96-well plate (Millipore, Cat no. MAPHNOB50) was pre-treated with 100 μL of a 100 mM phosphoric acid prior to the addition of the enzyme reaction mixture (40 μL). The solution was left to soak on to the phosphocellulose membrane for 30 minutes and the plate subsequently washed four times with 200 μL of a 100 mM phosphoric acid. To each well of the dry plate was added 30 μL of Optiphase ‘SuperMix’ liquid scintillation cocktail (Perkin Elmer) prior to scintillation counting (1450 Microbeta Liquid Scintillation Counter, Wallac). Levels of non-enzyme catalyzed background radioactivity were determined by adding 16 μL of the 500 mM phosphoric acid to control wells, containing all assay components (which acts to denature the enzyme), prior to the addition of the [γ-^33P]-ATP solution. Levels of enzyme catalyzed ^33P incorporation were calculated by subtracting mean background counts from those measured at each inhibitor concentration. For each Ki determination 8 data points, typically covering the concentration range 0-10 μM compound, were obtained in duplicate (DMSO stocks were prepared from an initial compound stock of 10 mM with subsequent 1:2.5 serial dilutions). Ki values were calculated from initial rate data by non-linear regression using the Prism software package (Prism 3.0, Graphpad Software, San Diego, Calif.).

Colo205 cells = test: Analysis of Cell Proliferation, 3H thymidine incorporation; format: cell-based; details: Homo sapiens
Description: Compounds were screened for their ability to inhibit cell proliferation using Colo205 cells obtained from ECACC and using the assay shown below.
Colo205 cells were seeded in 96 well plates and serially diluted compound was added to the wells in duplicate. Control groups included untreated cells, the compound diluent (0.1% DMSO alone) and culture medium without cells. The cells were then incubated for 72 or 96 hrs at 37C in an atmosphere of 5% CO2/95% humidity.
To measure proliferation, 3 h prior to the end of the experiment 0.5 μCi of 3H thymidine was added to each well. Cells were then harvested and the incorporated radioactivity counted on a Wallac microplate beta-counter. Dose response curves were calculated using either Prism 3.0 (GraphPad) or SoftMax Pro 4.3.1 LS (Molecular Devices) software.

[3] = COLO 205, 96 h, 96 hours, read-out: IC50 cell proliferation after 96 hours
[4] = COLO 205, 72 h, 72 hours, read-out: IC50 cell proliferation after 72 hours

Aurora-1 (Aurora B), sequence (Q96GD4 whole entry): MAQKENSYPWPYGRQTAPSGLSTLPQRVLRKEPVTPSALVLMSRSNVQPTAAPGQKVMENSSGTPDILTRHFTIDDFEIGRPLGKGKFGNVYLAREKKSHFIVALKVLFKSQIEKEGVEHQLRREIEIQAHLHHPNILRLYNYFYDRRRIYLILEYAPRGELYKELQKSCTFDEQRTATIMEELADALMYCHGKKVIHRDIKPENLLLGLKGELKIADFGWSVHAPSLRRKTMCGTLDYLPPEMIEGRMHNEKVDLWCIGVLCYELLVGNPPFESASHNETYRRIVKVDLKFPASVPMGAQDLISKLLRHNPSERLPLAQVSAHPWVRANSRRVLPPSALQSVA

## Cc1cnc(Nc2cc(N3CCC(N4CCOCC4)CC3)nc(Sc3ccc(NC(=O)C4CC4)cc3)n2)s1 [Compound I-4]
[1]
  Ki: < 25 nM
Aurora-2 (Aurora A)
  Ki: ≤ 10 nM

## CCC(=O)Nc1ccc(Sc2nc(Nc3cc(C)n[nH]3)cc(N3CCC(NC(C)(C)C)CC3)n2)cc1 [Compound I-7]
[1]
  Ki: 25 to 100 nM
Aurora-2 (Aurora A)
  Ki: ≤ 10 nM
[2]
  Ki: < 200 nM
Aurora-1 (Aurora B)
  Ki: 10 to 50 nM

## Cc1cnc(Nc2cc(N3CC[C@H](O)C3)nc(Sc3ccc(NC(=O)C4CC4)cc3)n2)s1 [Compound I-12]
[1]
  Ki: 25 to 100 nM
Aurora-2 (Aurora A)
  Ki: ≤ 10 nM
Colo205 cells; [3]
  IC50: 50 to 200 nM

## CCC(=O)Nc1ccc(Sc2nc(Nc3cc(C)n[nH]3)cc(N3CCC(F)C3)n2)cc1 (stereo not drawn) [Compound I-18]
[1]
  Ki: < 25 nM
Aurora-2 (Aurora A)
  Ki: ≤ 10 nM
[2]
  Ki: 200 to 500 nM
Aurora-1 (Aurora B)
  Ki: 10 to 50 nM
Colo205 cells; [3]
  IC50: 50 to 200 nM

## CCC(=O)Nc1ccc(Sc2nc(Nc3cc(C)n[nH]3)cc(N3CC[C@@H](N(C)C)C3)n2)cc1 [Compound I-24]
[1]
  Ki: < 25 nM
Aurora-2 (Aurora A)
  Ki: ≤ 10 nM
Colo205 cells; [3]
  IC50: 50 to 200 nM

## Cc1cnc(Nc2cc(N3CCC(N4CCCC4)CC3)nc(Sc3ccc(NC(=O)C4CC4)cc3)n2)s1 [Compound I-38]
[1]
  Ki: < 25 nM
Aurora-2 (Aurora A)
  Ki: ≤ 10 nM
Aurora-1 (Aurora B)
  Ki: 10 to 50 nM
Colo205 cells; [3]
  IC50: ≤ 50 nM

## CCN[C@H]1CCN(c2cc(Nc3cc(C)n[nH]3)nc(Sc3ccc(NC(=O)CC)cc3)n2)C1 [Compound I-39]
[1]
  Ki: < 25 nM
Aurora-2 (Aurora A)
  Ki: ≤ 10 nM
Aurora-1 (Aurora B)
  Ki: 10 to 50 nM
Colo205 cells; [3]
  IC50: ≤ 50 nM

## CCC(=O)Nc1ccc(Sc2nc(Nc3cc(C)n[nH]3)cc(N3CCC(N4CCCC4)CC3)n2)cc1 [Compound I-41]
[1]
  Ki: 25 to 100 nM
Aurora-2 (Aurora A)
  Ki: ≤ 10 nM
[2]
  Ki: < 200 nM
Colo205 cells; [4]
  IC50: 25 to 125 nM
Colo205 cells; [3]
  IC50: ≤ 50 nM

## CCC(=O)Nc1ccc(Sc2nc(Nc3cc(C)[nH]n3)cc(N3CC[C@H](N(C)C)C3)n2)cc1 [Compound I-46]
[1]
  Ki: < 25 nM
Aurora-2 (Aurora A)
  Ki: ≤ 10 nM
Aurora-1 (Aurora B)
  Ki: 10 to 50 nM
Colo205 cells; [3]
  IC50: ≤ 50 nM

## CN[C@H]1CCN(c2cc(Nc3ncc(C)s3)nc(Sc3ccc(NC(=O)C4CC4)cc3)n2)C1 [Compound I-52]
[1]
  Ki: < 25 nM
Aurora-2 (Aurora A)
  Ki: ≤ 10 nM
Colo205 cells; [3]
  IC50: ≤ 50 nM

## CCC(=O)Nc1ccc(Sc2nc(Nc3cc(C)n[nH]3)cc(N3CCC4(CCN(C)C4)CC3)n2)cc1 [Compound I-53]
[1]
  Ki: < 25 nM
Aurora-2 (Aurora A)
  Ki: ≤ 10 nM
[2]
  Ki: < 200 nM
Colo205 cells; [4]
  IC50: 25 to 125 nM
Colo205 cells; [3]
  IC50: ≤ 50 nM

## CCC(=O)Nc1ccc(Sc2nc(Nc3cc(C)n[nH]3)cc(N3CC[C@H](N4CCCC4)C3)n2)cc1 [Compound I-55]
Aurora-2 (Aurora A)
  Ki: ≤ 10 nM
[2]
  Ki: 200 to 500 nM
Colo205 cells; [3]
  IC50: ≤ 50 nM

## CCC(=O)Nc1ccc(Sc2nc(Nc3cc(C)n[nH]3)cc(N3CCC(N4[C@H](C)CC[C@H]4C)CC3)n2)cc1 [Compound I-57]
[1]
  Ki: < 25 nM
Aurora-2 (Aurora A)
  Ki: ≤ 10 nM
Aurora-1 (Aurora B)
  Ki: 10 to 50 nM
Colo205 cells; [3]
  IC50: ≤ 50 nM

## CCC(=O)Nc1ccc(Sc2nc(Nc3cc(C)n[nH]3)cc(N3CC4CN(C(C)C)CC4C3)n2)cc1 (stereo not drawn) [Compound I-60]
[1]
  Ki: < 25 nM
Aurora-2 (Aurora A)
  Ki: ≤ 10 nM
Aurora-1 (Aurora B)
  Ki: 10 to 50 nM
Colo205 cells; [3]
  IC50: ≤ 50 nM

## CCC(=O)Nc1ccc(Sc2nc(Nc3cc(C)n[nH]3)cc(N3CCC(O)(C(C)(C)C)CC3)n2)cc1 [Compound I-61]
Aurora-2 (Aurora A)
  Ki: ≤ 10 nM
[2]
  Ki: 200 to 500 nM
Aurora-1 (Aurora B)
  Ki: 10 to 50 nM
Colo205 cells; [3]
  IC50: ≤ 50 nM

## Cc1cc(Nc2cc(N3CCC(N4CCOCC4)CC3)nc(Sc3ccc(NC(=O)CC(F)(F)F)cc3)n2)[nH]n1 [Compound I-72]
Aurora-2 (Aurora A)
  Ki: ≤ 10 nM
[2]
  Ki: < 200 nM
Aurora-1 (Aurora B)
  Ki: ≤ 10 nM
Colo205 cells; [4]
  IC50: ≤ 25 nM

## Cc1cc(Nc2cc(N3CCC(F)C3)nc(Sc3ccc(NC(=O)CC(F)(F)F)cc3)n2)[nH]n1 (stereo not drawn) [Compound I-78]
[1]
  Ki: < 25 nM

## Cc1cc(Nc2cc(N3CCC(N4CCC(F)(F)C4)CC3)nc(Sc3ccc(NC(=O)CC(F)(F)F)cc3)n2)[nH]n1 [Compound I-82]
Aurora-2 (Aurora A)
  Ki: ≤ 10 nM
[2]
  Ki: 200 to 500 nM
Aurora-1 (Aurora B)
  Ki: 10 to 50 nM
Colo205 cells; [4]
  IC50: 25 to 125 nM
